The results in this text go back to patent publication US20260167620A1, “MULTIFUNCTIONAL COMPOUND CAPABLE OF DEGRADING BTK KINASE, AND COMPOSITION AND USE” (HANGZHOU HEALZEN THERAPEUTICS CO., LTD., priority 2021, published 2026).

Usually IC50 stands for the midpoint of a concentration-inhibition curve. Lower therefore signals greater potency. In general, DC50 refers to the midpoint of the concentration-degradation curve. The low end stands for degradation at low concentration, the high end for degradation only at high concentration.

One series has as its system Mino cells. As to the kind of experiment: Inhibitory activity on Mino cell proliferation (MTS). The conditions noted are these: Homo sapiens, 72 h or 168 h. It is filed as cell-based. Put shortly:
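OCI-LY10 and Mino cells seeded at 10000 cells/well overnight, then exposed to compound (from 1000 nM, 4-fold, 8 points) for 72 h or 168 h at 37° C. Viability by MTS, 2 h, absorbance at 490 and 650 nm; IC50 from the dose-response curve.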

The target in a further series is T1, BTK (Homo sapiens, UniProt Q06187).
T1 construct: endogenous in cells; host or cells: Mino cells
T1 sequence (Q06187 whole entry): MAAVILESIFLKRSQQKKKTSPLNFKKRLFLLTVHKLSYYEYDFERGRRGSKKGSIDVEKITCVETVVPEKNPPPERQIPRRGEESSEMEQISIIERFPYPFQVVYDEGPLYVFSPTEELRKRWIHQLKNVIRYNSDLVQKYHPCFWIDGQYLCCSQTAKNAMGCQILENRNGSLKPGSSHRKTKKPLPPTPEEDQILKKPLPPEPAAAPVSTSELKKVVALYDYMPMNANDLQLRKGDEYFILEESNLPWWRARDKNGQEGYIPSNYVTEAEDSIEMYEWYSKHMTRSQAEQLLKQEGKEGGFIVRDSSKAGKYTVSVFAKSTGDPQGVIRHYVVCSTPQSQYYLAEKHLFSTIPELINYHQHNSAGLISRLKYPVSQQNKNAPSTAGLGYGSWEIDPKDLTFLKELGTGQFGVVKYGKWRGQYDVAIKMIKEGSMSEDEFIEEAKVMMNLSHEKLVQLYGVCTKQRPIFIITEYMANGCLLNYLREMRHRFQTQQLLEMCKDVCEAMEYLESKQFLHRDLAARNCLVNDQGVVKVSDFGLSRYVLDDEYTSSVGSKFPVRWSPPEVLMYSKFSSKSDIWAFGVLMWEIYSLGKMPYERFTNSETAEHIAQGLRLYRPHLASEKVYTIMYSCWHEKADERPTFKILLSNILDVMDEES
Put plainly: BTK degradation activity test in Mino cells (Westernblot or Elisa). Type of series: cell-based. The conditions noted are these: 24-72 h incubation. On the procedure: The Mino cell line cells are 0.5˜1 million/well in 6-well plates. The compounds are diluted to different concentrations, added to the plate, and after 24-72 h of incubation, the cells are collected. After the cells were lysed, the total protein concentration in each well was determined with a BCA kit. The amount of BTK is determined using the Westernblot or Elisa method.

Series [1] can be described thus: Liver microsomal metabolic stability, human. Type of series: in vitro ADME. Conditions: human liver microsomes, NADPH, 37° C. On the procedure: (§1) Under the condition of ice bath, 1 mg of human or Mouse liver microparticles was add to PBS (1 mL) buffer, then NADPH (20 μL) was added, and incubated at 37° C. for 5 min. 10 μL of the compound to be tested was added, then suck several times with a pipette and divide into 3 aliquots of 330 μL; each and then samples were taken at 0, 15, 30, 60 and 120 min respectively. 10 μL of the solution was taken with a pipette each time and added to 490 μL of the solution containing the internal standard compound. The resulting solution was vortexed and then placed on ice, and then sampling at another time point continues. All samples were centrifuged at 10,000 rpm for 10 min, and the supernatant was taken for LC/MS testing. The metabolism of the compound in liver microsomes was calculated based on the peak area.

Another series can be described thus: Rat absorption test. It is filed as in vivo. Conditions: SD rats, intragastric 10 mg/kg, plasma. On the procedure:
SD Rats were used as experimental animals, and drugs were administered intragastrically at 10 mg/kg (5% DMSO+5% Solutol+90% normal saline). The blood collection time points for intragastric administration were 0.25, 0.5, 1, 2, 4, 6, 8, and 24 h. 0.3 ml of whole blood was taken, and 0.1 ml of plasma was taken after centrifugation and analyzed by LC-MS.

A further series is described as follows: Mouse absorption test. It is filed as in vivo. Conditions: mice, intragastric 10 mg/kg, plasma. On the procedure: Experimental method: mice were used as experimental animals, and drugs were administered intragastrically at 10 mg/kg (5% DMSO+5% Solutol+90% saline). The blood collection time points for intragastric administration were 0.25, 0.5, 1, 2, 4, 6, 8, and 24 h. 0.3 ml of whole blood was taken, and 0.1 ml of plasma was taken after centrifugation and analyzed by LC-MS.

Series [2] in a line: Liver microsomal metabolic stability, mouse. It is filed as in vitro ADME. Conditions: mouse liver microsomes, NADPH, 37° C. On the procedure: as §1
(Liver microsomes are a subcellular fraction often used to study metabolism.)

As for `NC(=O)c1nnc(N2CCCCC2)nc1Nc1ccc(N2CCC(CN3CCN(c4cc5c(cc4F)C(=O)N(C4CCC(=O)NC4=O)C5=O)CC3)CC2)c(F)c1` (stereo not drawn) [Compound 045, 5-((4-(4-((4-(2-(2,6-dioxopiperidin-3-yl)-6-fluoro-1,3-dioxoisoindolin-5-yl)piperazin-1-yl)methyl)piperidin-1-yl)-3-fluorophenyl)amino)-3-(piperidin-1-yl)-1,2,4-triazine-6-carboxamide], 3.91 nM corresponded to half-maximal inhibition in the series on Mino cells (IC50). This molecule showed a DC50 on BTK of under 10 nM. The “Thalf (min) Human” value in series [1] is recorded as 38 min. For the same molecule, the DNAUC in the series “Rat absorption test” is reported as 716 AUC (h*ng/mL)/dose (mg/kg); in the series “Mouse absorption test”, 1686 AUC (h*ng/mL)/dose (mg/kg). Further, the “Thalf (min) Mouse” value in series [2] is reported as 120 min.
